# Experimental data as given in patent US12617773B2, “Azetidin-3-ylmethanol derivatives as CCR6 receptor modulators” (Idorsia Pharmaceuticals Ltd, priority 2020, dated 2026).
# Target: T1, human CCR6 (Homo sapiens, UniProt P51684)
# T1 construct: expressed in transfected cells; host or cells: HEK-293
# T1 sequence (P51684 1-374): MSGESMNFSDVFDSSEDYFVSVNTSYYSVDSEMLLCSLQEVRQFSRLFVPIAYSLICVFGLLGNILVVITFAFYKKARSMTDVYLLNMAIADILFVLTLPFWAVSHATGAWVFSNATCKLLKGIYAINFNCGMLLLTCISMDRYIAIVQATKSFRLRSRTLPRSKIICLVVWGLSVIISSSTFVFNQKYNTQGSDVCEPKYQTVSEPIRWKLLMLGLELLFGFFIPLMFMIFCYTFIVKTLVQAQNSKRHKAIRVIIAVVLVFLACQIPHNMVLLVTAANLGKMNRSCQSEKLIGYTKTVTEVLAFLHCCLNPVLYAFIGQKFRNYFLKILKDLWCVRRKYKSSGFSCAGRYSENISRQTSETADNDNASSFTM
# Experiment: FLIPR assay (inhibition of CCL20-induced calcium signal)
# Type: cell-based
# Details: HEK-293 cells expressing human CCR6; mean values where determined several times; read-out: FLIPR IC50
# Procedure, shortened: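 Dye-loaded HEK-293 cells expressing human CCR6 were preincubated with compound for 30 min at room temperature in the dark, then challenged with 10 nM CCL20 (final). Fluorescence was tracked on FLIPR, and baseline-subtracted peak emission over base after agonist addition gave inhibition dose-response curves for IC50.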
row,IC50 [nM],SMILES
1,184,CC(C)c1ccc([C@](O)(c2cncc(-c3noc(C4CCC(=O)NC4)n3)c2)C2(C)CN(C)C2)cc1 (stereo partly shown) [Example 481]
2,92.3,CC(C)c1ccc([C@](O)(c2cncc(-c3noc(C4(C)CNC(=O)C4)n3)c2)C2(C)CN(C)C2)cc1 (stereo partly shown) [Example 482]
3,73.1,CC(C)c1ccc([C@](O)(c2cncc(-c3noc(CN4C(=O)CC(C)(C)C4=O)n3)c2)C2(C)CN(C)C2)cc1 [Example 483]
4,593,CC(C)c1ccc([C@](O)(c2cncc(-c3noc(CN4CC(=O)NC4=O)n3)c2)C2(C)CN(C)C2)cc1 [Example 484]
5,259,CC(C)c1ccc([C@](O)(c2cncc(-c3noc(CN4CCCC4=O)n3)c2)C2(C)CN(C)C2)cc1 [Example 485]
6,287,CC(C)c1ccc([C@](O)(c2cncc(-c3noc(CN4C(=O)CNC4=O)n3)c2)C2(C)CN(C)C2)cc1 [Example 486]
7,248,CC(C)c1ccc([C@](O)(c2cncc(-c3noc(CN4C(=O)CN(C)C4=O)n3)c2)C2(C)CN(C)C2)cc1 [Example 487]
8,382,CC(C)c1ccc([C@](O)(c2cncc(-c3noc(CN4CC(=O)N(C)C4=O)n3)c2)C2(C)CN(C)C2)cc1 [Example 488]
9,135,CC(C)c1ccc([C@](O)(c2cncc(-c3noc(CN4CCOC4=O)n3)c2)C2(C)CN(C)C2)cc1 [Example 489]
10,143,CC(C)c1ccc([C@](O)(c2cncc(-c3noc(CN4CCN(C5CC5)C4=O)n3)c2)C2(C)CN(C)C2)cc1 [Example 490]
11,172,CC(C)c1ccc([C@](O)(c2cncc(-c3noc(CN4C(=O)CCC4=O)n3)c2)C2(C)CN(C)C2)cc1 [Example 491]
12,267,CC(C)c1ccc([C@](O)(c2cncc(-c3noc(CN4CCN(C)C4=O)n3)c2)C2(C)CN(C)C2)cc1 [Example 492]
13,185,CC(C)c1ccc([C@](O)(c2cncc(-c3noc(CN4CCNC4=O)n3)c2)C2(C)CN(C)C2)cc1 [Example 493]
14,240,CC(C)c1ccc([C@](O)(c2cncc(-c3noc(C(C)(O)CO)n3)c2)C2(C)CN(C)C2)cc1 (stereo partly shown) [Example 494]
15,20.9,CC(C)c1ccc([C@](O)(c2cncc(-c3noc(-c4cccnc4)n3)c2)C2(C)CN(C)C2)cc1 [Example 495]
16,69.7,CC(=O)N1CCC(Cc2nc(-c3cncc([C@@](O)(c4ccc(C(C)C)cc4)C4(C)CN(C)C4)c3)no2)CC1 [Example 496]
17,74.3,CC(C)c1ccc([C@](O)(c2cncc(-c3noc(CC#N)n3)c2)C2(C)CN(C)C2)cc1 [Example 497]
18,234,"CC(=O)N1CCC(O)(c2nc(-c3cncc([C@@](O)(c4ccc(C(C)C)cc4)C4(C)CN(C)C4)c3)no2)CC1 [Example 498, 1-[4-(3-{5-[(R)-(1,3-Dimethyl-azetidin-3-yl)-hydroxy-(4-isopropyl-phenyl)-methyl]-pyridin-3-yl}-[1,2,4]oxadiazol-5-yl)-4-hydroxy-piperidin-1-yl]-ethanone]"
19,53.8,"CC(C)c1ccc([C@](O)(c2cncc(-c3noc(CCC#N)n3)c2)C2(C)CN(C)C2)cc1 [Example 499, 3-(3-{5-[(R)-(1,3-Dimethyl-azetidin-3-yl)-hydroxy-(4-isopropyl-phenyl)-methyl]-pyridin-3-yl}-[1,2,4]oxadiazol-5-yl)-propionitrile]"

row,IC50 [nM],SMILES
1,149,"COC1CN(C(C)=O)CCC1c1nc(-c2cncc([C@@](O)(c3ccc(C(C)C)cc3)C3(C)CN(C)C3)c2)no1 (stereo partly drawn) [Example 500, 1-[4-(3-{5-[(R)-(1,3-Dimethyl-azetidin-3-yl)-hydroxy-(4-isopropyl-phenyl)-methyl]-pyridin-3-yl}-[1,2,4]oxadiazol-5-yl)-3-methoxy-piperidin-1-yl]-ethanone]"
2,108,"CC(=O)N1CCC[C@@H](c2nc(-c3cncc([C@@](O)(c4ccc(C(C)C)cc4)C4(C)CN(C)C4)c3)no2)C1 [Example 501, 1-[(R)-3-(3-{5-[(R)-(1,3-Dimethyl-azetidin-3-yl)-hydroxy-(4-isopropyl-phenyl)-methyl]-pyridin-3-yl}-[1,2,4]oxadiazol-5-yl)-piperidin-1-yl]-ethanone]"
3,65.8,CC(C)c1ccc([C@](O)(c2cncc(-c3noc(C4(O)CCOCC4)n3)c2)C2(C)CN(C)C2)cc1 [Example 502]
4,51.1,CC(C)c1ccc([C@](O)(c2cncc(-c3noc(C45CC(CO)(C4)C5)n3)c2)C2(C)CN(C)C2)cc1 [Example 503]
5,143,CC(C)c1ccc([C@](O)(c2cncc(-c3noc(C4CC(=O)N(C)C(=O)C4)n3)c2)C2(C)CN(C)C2)cc1 [Example 504]
6,35.9,CC(C)c1ccc([C@](O)(c2cncc(-c3noc(C(F)(F)CO)n3)c2)C2(C)CN(C)C2)cc1 [Example 505]
7,24,COc1cccc(-c2nc(-c3cncc([C@@](O)(c4ccc(C(C)C)cc4)C4(C)CN(C)C4)c3)no2)c1 [Example 506]
8,32.7,CC(C)c1ccc([C@](O)(c2cncc(-c3noc(C(C)C)n3)c2)C2(C)CN(C)C2)cc1 [Example 507]
9,49.1,Cc1cc(-c2nc(-c3cncc([C@@](O)(c4ccc(C(C)C)cc4)C4(C)CN(C)C4)c3)no2)ncn1 [Example 508]
10,142,CC(=O)N1CC[C@@H](Cc2nc(-c3cncc([C@@](O)(c4ccc(C(C)C)cc4)C4(C)CN(C)C4)c3)no2)C1 [Example 514]
11,63.5,"Cc1nc(-c2cncc([C@@](O)(c3ccc(C(C)C)cc3)C3(C)CN(C)C3)c2)no1 [Example 517, (R)-(1,3-Dimethyl-azetidin-3-yl)-(4-isopropyl-phenyl)-[5-(5-methyl-[1,2,4]oxadiazol-3-yl)-pyridin-3-yl]-methanol]"
12,41.2,"CC(C)c1ccc([C@](O)(c2cncc(-c3noc(C(C)(F)F)n3)c2)C2(C)CN(C)C2)cc1 [Example 518, (R)-{5-[5-(1,1-Difluoro-ethyl)-[1,2,4]oxadiazol-3-yl]-pyridin-3-yl}-(1,3-dimethyl-azetidin-3-yl)-(4-isopropyl-phenyl)-methanol]"
13,168,"CC(C)c1ccc([C@](O)(c2cncc(-c3nc(C4(O)CCOCC4)no3)c2)C2(C)CN(C)C2)cc1 [Example 519, 4-(5-{5-[(R)-(1,3-Dimethyl-azetidin-3-yl)-hydroxy-(4-isopropyl-phenyl)-methyl]-pyridin-3-yl}-[1,2,4]oxadiazol-3-yl)-tetrahydro-pyran-4-ol]"
14,62.6,CC(C)c1ccc([C@](O)(c2cncc(-c3nc(COC(C)(C)C)no3)c2)C2(C)CN(C)C2)cc1 [Example 520]
15,153,CC(C)c1ccc([C@](O)(c2cncc(-c3nc(CO)no3)c2)C2(C)CN(C)C2)cc1 [Example 521]
16,119,CC(=O)N1CCN(c2noc(-c3cncc([C@@](O)(c4ccc(C(C)C)cc4)C4(C)CN(C)C4)c3)n2)CC1 [Example 522]
17,297,CC(=O)N1CC(Cc2noc(-c3cncc([C@@](O)(c4ccc(C(C)C)cc4)C4(C)CN(C)C4)c3)n2)C1 [Example 523]
18,178,"CC(C)c1ccc([C@](O)(c2cncc(-c3nc(CC4(O)CCOCC4)no3)c2)C2(C)CN(C)C2)cc1 [Example 524, 4-(5-{5-[(R)-(1,3-Dimethyl-azetidin-3-yl)-hydroxy-(4-isopropyl-phenyl)-methyl]-pyridin-3-yl}-[1,2,4]oxadiazol-3-ylmethyl)-tetrahydro-pyran-4-ol]"
